# Experiments:
# Type in all cases: in vivo, rat
# Sprague Dawley rats [1] = assay: Blast-induced traumatic brain injury/cognitive deficits measured by PEL; conditions: 10 mg/kg PO 1 h post-blast, PEL 48 hours post-blast
# Excerpt: Single blast-induced traumatic brain injury/cognitive deficits were induced, modified for use in rats according to the protocol of Goldstein et al., “Chronic traumatic encephalopathy in blast-exposed military veterans and a blast neurotrauma mouse model,” Science Translational Medicine, Vol. 4, Issue 134, pp. 134ra60, 2012. Male 2-3 month old Sprague Dawley rats were used. Rats were housed in Lucite cages with aspen wood chip bedding, maintained on a 12:12 light:dark cycle (lights on at 5 AM), and given ad libitum access to Purina lab chow (USA) and tap water throughout the study. Rats were first anesthetized using 3.5-4% isoflurane, then the ears were protected with 1.5×1.5 mm foam plugs (Pura-Fit®, Moldex-Metric Inc., Culver City, Calif.), and the rat was placed into a head access rodent thoracic restrainer (Stoelting, USA) to protect the body while allowing the head to move freely. […]
# PEL (Positive emotional learning) was conducted 48 hours post-blast. […] High frequency ultrasonic vocalizations (USVs) were recorded and analyzed by sonogram with Avasoft SASlab Pro (Germany) as previously described by Burgdorf et al., “Positive emotional learning is regulated in the medial prefrontal cortex by GluN2B-containing NMDA receptors,” Neuroscience, 192:515-523, 2011. Frequency modulated 50-kHz USVs that occurred during each the no-stimulation periods were quantified to measure PEL. […]
# SD rats = assay: Novelty-induced hypophagia (NIH) test; conditions: 1-100 μg/kg PO, 1 h before test
# Excerpt: This Example relates to the assessment of the anxiolytic effect of treatment in the stress-induced anxiety model, novelty induced hypophagia. This assay is also sensitive to the rapid acting antidepressants ketamine and GLYX-13 (Li et al., “mTOR-dependent synapse formation underlies the rapid antidepressant effects of NMDA antagonists,” Science 329:959-964, 2010; and Burgdorf et al., 2013). See also Bodnoff et al., “A comparison of the effects of diazepam versus several typical and atypical anti-depressant drugs in an animal model of anxiety,” Psychopharmacology, 97:277-279, 1989.
# Testing was conducted as described by (Burgdorf et al., 2013). […] Animals were food deprived overnight before testing, and lab chow was placed in the center chamber of an open field (40×40×20 cm) for 10 min under dim red lighting. Between testing each animal, feces and urine were removed from the apparatus. After NIH testing, the latency to eat in the animal's home cage was determined as a control to ensure the effect on eating is specific to the novel environment. Animals were videotaped, and latency (sec) for the animal to take the first bite of food was manually scored offline.
# A single point per dose group that was 2 or more standard deviations from the mean was considered an outlier and was excluded from the data analysis. […]
# Sprague Dawley rats [2] = assay: Porsolt forced swim test; conditions: 1-100 μg/kg PO, 1 h post-dosing
# Protocol: A non-clinical in vivo pharmacology study (Porsolt assay) was performed to measure antidepressant-like effects. A negative control (0.5% sodium carboxymethyl cellulose in 0.9% sterile saline vehicle) and a positive control (Compound C) were used to compare against Compound BB. The study allowed for the construction of a dose-response curve of the effects of each compound on the Porsolt forced swim test as assessed by the rats' response (reduced floating time) during a 5-minute swimming test.
# Male 2-3 month old Sprague Dawley rats were used (Harlan, Indianapolis, Ind.). Rats were housed in Lucite cages with aspen wood chip bedding, maintained on a 12:12 light:dark cycle (lights on at 5 AM), and given ad libitum access to Purina lab chow (USA) and tap water throughout the study.
# The Porsolt forced swim test adapted for use in rats was performed as described by Burgdorf et al., (The long-lasting antidepressant effects of rapastinel (GLYX-13) are associated with a metaplasticity process in the medial prefrontal cortex and hippocampus. Neuroscience 308:202-211, 2015). Animals were placed in a 46 cm tall×20 cm in diameter clear glass tube filled to 30 cm with tap water (23±1° C.) for 15 min on the first day (habituation) and 5 min on the subsequent test day. Animals were tested 1 h post-dosing with the compound BB, positive control (Compound C, 10 μg/kg), or vehicle (0.5% sodium carboxymethyl cellulose (Na-CMC) in 0.9% sterile saline). Water was changed after every other animal. Animals were videotaped, and floating time as defined as the minimal amount of effort required to keep the animals head above water was scored offline by a blinded experimenter with high inter-rater reliability (Pearson's r >0.9).
# The maximally efficacious dose was defined as the lowest dose that was statistically different from vehicle but statistically equivalent (per Fisher's PLSD) to the higher doses. […]
# Compound AA was assessed in a second set of animals at a single dose at 1 h post-administration and in a third set of animals at 24 h post-administration (FIG. 9B). […]
smiles,measurement,setting,value
"C[C@@H](O)[C@@H](C(N)=O)N1C[C@@]2(CCCN2S(C)(=O)=O)C1=O [Compound BB, (2S,3R)-3-hydroxy-2-((S)-5-(methylsulfonyl)-1-oxo-2,5-diazaspiro[3,4]octan-2-yl)butanamide]",blast-induced cognitive deficits as measured by PEL,Sprague Dawley rats [1],reversed blast-induced cognitive deficits
same,latency to eat in the novelty-induced hypophagia (NIH) test,SD rats,produces an anxiolytic effect
same,floating time in the Porsolt test,Sprague Dawley rats [2],produces an antidepressant-like effect as measured by decreased floating time
